{"source": "patent US7053175B1", "about": "“Synthetic peptides useful in biological assays for detecting infections caused by group O HIV-1 viruses” (Bio-Rad Pasteur, priority 1997, dated 2006)", "test_system": "sera from patients infected with group O HIV-1 retroviruses", "test": "Immunoenzymatic test: Test No. 1 (immunoreactivity of peptides coated on microplates)", "type": "binding, human", "design": "key to ABSORBANCE: >: signal greater than the reading capacity of the spectrophotometer", "conditions": "cyclized peptide 2 μg/ml", "outline": "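Peptides coated at 2 μg/ml in 0.1 M carbonate buffer overnight. Sera from group O HIV-1-infected patients, diluted 1/5, incubated 30 min at 40° C, then HRP anti-human IgG/IgM, OPD development, A490-A620 read. Cut-off 0.15 = mean of 48 HIV-negative sera plus 12 SD.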", "note": "No end group written: not given here.", "data": [{"sequence": "LLNLWGCKNRAICYTSVKWNKT (cysteine pairing not given here) [VAU 22 AA, reference compound]", "values": [{"measurement": "ABSORBANCE", "setting": "serum 134", "value": ">"}, {"measurement": "ABSORBANCE", "setting": "serum 402", "value": ">"}, {"measurement": "ABSORBANCE", "setting": "serum 625", "value": ">"}, {"measurement": "ABSORBANCE", "setting": "serum 1062", "value": ">"}, {"measurement": "ABSORBANCE", "setting": "serum 1105*", "value": 0.099}, {"measurement": "ABSORBANCE", "setting": "serum 1581", "value": 1.112}, {"measurement": "ABSORBANCE", "setting": "serum 1702", "value": ">"}, {"measurement": "ABSORBANCE", "setting": "serum 1754", "value": 1.263}, {"measurement": "ABSORBANCE", "setting": "serum 2294", "value": ">"}, {"measurement": "ABSORBANCE", "setting": "serum 2312", "value": ">"}, {"measurement": "ABSORBANCE", "setting": "serum 2313", "value": ">"}, {"measurement": "ABSORBANCE", "setting": "serum 2352", "value": ">"}, {"measurement": "ABSORBANCE", "setting": "serum 2551", "value": ">"}, {"measurement": "ABSORBANCE", "setting": "serum 2700", "value": ">"}, {"measurement": "ABSORBANCE", "setting": "serum 3016", "value": ">"}, {"measurement": "ABSORBANCE", "setting": "serum 3136", "value": ">"}, {"measurement": "ABSORBANCE", "setting": "serum 3235", "value": ">"}, {"measurement": "ABSORBANCE", "setting": "serum 3236", "value": ">"}, {"measurement": "ABSORBANCE", "setting": "serum 3302", "value": ">"}, {"measurement": "ABSORBANCE", "setting": "serum 3482", "value": ">"}, {"measurement": "ABSORBANCE", "setting": "serum 3529", "value": ">"}, {"measurement": "ABSORBANCE", "setting": "serum 3600*", "value": ">"}, {"measurement": "ABSORBANCE", "setting": "serum 3627*", "value": ">"}, {"measurement": "ABSORBANCE", "setting": "serum 3637", "value": 0.779}, {"measurement": "ABSORBANCE", "setting": "serum 3653", "value": 1.441}, {"measurement": "ABSORBANCE", "setting": "serum 3771", "value": ">"}, {"measurement": "ABSORBANCE", "setting": "serum 3884*", "value": ">"}, {"measurement": "ABSORBANCE", "setting": "serum 3891", "value": ">"}, {"measurement": "ABSORBANCE", "setting": "serum 3935", "value": 0.138}, {"measurement": "ABSORBANCE", "setting": "serum 3945", "value": ">"}, {"measurement": "ABSORBANCE", "setting": "serum 4021*", "value": 0.050}, {"measurement": "ABSORBANCE", "setting": "serum 4288*", "value": 2.337}, {"measurement": "ABSORBANCE", "setting": "serum 4364", "value": ">"}, {"measurement": "ABSORBANCE", "setting": "serum 4434", "value": 2.273}, {"measurement": "ABSORBANCE", "setting": "serum 4477", "value": 2.511}, {"measurement": "ABSORBANCE", "setting": "serum 4489*", "value": 1.318}, {"measurement": "ABSORBANCE", "setting": "serum 5149*", "value": ">"}, {"measurement": "ABSORBANCE", "setting": "serum 5164", "value": ">"}, {"measurement": "ABSORBANCE", "setting": "serum 5210", "value": ">"}, {"measurement": "ABSORBANCE", "setting": "serum 5270*", "value": ">"}, {"measurement": "ABSORBANCE", "setting": "serum 5373", "value": 1.359}, {"measurement": "ABSORBANCE", "setting": "serum 5453", "value": 1.267}, {"measurement": "ABSORBANCE", "setting": "serum 5766*", "value": ">"}, {"measurement": "ABSORBANCE", "setting": "serum 5931", "value": 0.202}, {"measurement": "ABSORBANCE", "setting": "serum 5969*", "value": 2.491}, {"measurement": "ABSORBANCE", "setting": "serum 6111", "value": ">"}, {"measurement": "ABSORBANCE", "setting": "serum 6165", "value": ">"}, {"measurement": "ABSORBANCE", "setting": "serum 6198*", "value": ">"}, {"measurement": "ABSORBANCE", "setting": "serum 6295*", "value": 0.972}, {"measurement": "ABSORBANCE", "setting": "serum 6487", "value": 2.889}, {"measurement": "ABSORBANCE", "setting": "serum 6512*", "value": 0.120}, {"measurement": "ABSORBANCE", "setting": "serum 6627", "value": ">"}, {"measurement": "ABSORBANCE", "setting": "serum 6689*", "value": ">"}, {"measurement": "ABSORBANCE", "setting": "serum 6697", "value": ">"}, {"measurement": "ABSORBANCE", "setting": "serum 6782", "value": 2.190}, {"measurement": "ABSORBANCE", "setting": "serum 6891", "value": 0.359}, {"measurement": "ABSORBANCE", "setting": "serum 6976*", "value": ">"}, {"measurement": "ABSORBANCE", "setting": "serum 6998", "value": ">"}, {"measurement": "ABSORBANCE", "setting": "serum 7007", "value": ">"}, {"measurement": "ABSORBANCE", "setting": "serum 7120", "value": ">"}, {"measurement": "ABSORBANCE", "setting": "serum 7212", "value": ">"}, {"measurement": "ABSORBANCE", "setting": "serum 7258*", "value": ">"}, {"measurement": "ABSORBANCE", "setting": "serum 7297*", "value": ">"}, {"measurement": "ABSORBANCE", "setting": "serum 7439", "value": ">"}, {"measurement": "ABSORBANCE", "setting": "serum 7443", "value": 0.920}, {"measurement": "ABSORBANCE", "setting": "serum DUR*", "value": 0.118}, {"measurement": "ABSORBANCE", "setting": "serum ESS*", "value": ">"}, {"measurement": "ABSORBANCE", "setting": "serum HAD", "value": 0.789}, {"measurement": "ABSORBANCE", "setting": "serum VAU*", "value": ">"}]}]}
